Active and inactive are the calls of the source. No cut-off for these calls is given here.
Tests used:
[1] = molecular target: Trypanothione reductase (Trypanosoma cruzi) (UniProt P28593); assay: Inhibition of Trypanosoma cruzi recombinant trypanothione reductase at 100 uM by spectrophotometry using 50 uM trypanothione disulfide
[2] = system: L6; assay: Cytotoxicity against rat L6 cells; assay type: cell-based
[3] = system: Leishmania donovani; assay: Antileishmanial activity against Leishmania donovani axenic amastigotes; assay type: functional, organism-based
[4] = system: Trypanosoma cruzi; assay: Antitrypanosomal activity against Trypanosoma cruzi amastigotes infected in rat L6 cells; assay type: functional, organism-based
[5] = system: Plasmodium falciparum; assay: Antiplasmodial activity against intraerythrocytic form of Plasmodium falciparum; assay type: functional, organism-based
[6] = molecular target: Trypanothione reductase (Trypanosoma cruzi) (UniProt P28593); assay: Inhibition of Trypanosoma cruzi recombinant trypanothione reductase at 100 uM by spectrophotometry using 100 uM trypanothione disulfide
[7] = system: Trypanosoma brucei rhodesiense; assay: Antitrypanosomal activity against Trypanosoma brucei rhodesiense bloodstream trypomastigotes; assay type: functional, organism-based
[8] = molecular target: T1, Glutathione reductase, mitochondrial (Homo sapiens) (UniProt P00390); assay: Inhibition of human glutathione reductase at 10 uM by spectrophotometry in presence of 100 uM GSSG
T1 sequence (whole entry): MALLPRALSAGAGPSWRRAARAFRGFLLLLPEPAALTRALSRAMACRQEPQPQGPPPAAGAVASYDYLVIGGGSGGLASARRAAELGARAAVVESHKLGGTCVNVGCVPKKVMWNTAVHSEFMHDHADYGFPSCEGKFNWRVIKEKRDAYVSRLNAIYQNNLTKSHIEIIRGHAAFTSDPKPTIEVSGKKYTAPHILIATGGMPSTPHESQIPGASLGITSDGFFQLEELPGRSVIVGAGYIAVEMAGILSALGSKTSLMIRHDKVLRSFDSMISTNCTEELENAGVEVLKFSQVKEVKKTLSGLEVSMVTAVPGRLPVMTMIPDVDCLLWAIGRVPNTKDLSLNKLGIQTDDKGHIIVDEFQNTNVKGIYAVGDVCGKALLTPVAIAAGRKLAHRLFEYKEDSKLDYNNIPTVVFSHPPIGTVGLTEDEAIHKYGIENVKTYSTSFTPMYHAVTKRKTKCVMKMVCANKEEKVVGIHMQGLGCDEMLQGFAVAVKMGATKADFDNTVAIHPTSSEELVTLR

[9] = molecular target: Trypanothione reductase (Trypanosoma cruzi) (UniProt P28593); assay: Inhibition of Trypanosoma cruzi recombinant trypanothione reductase at 25 uM by spectrophotometry using 50 uM trypanothione disulfide
[10] = molecular target: T2, Trypanothione reductase (Trypanosoma cruzi, UniProt P28593); assay: Inhibition of Trypanosoma cruzi recombinant trypanothione reductase by spectrophotometry-based mixed inhibition type assay
T2 sequence (P28593 whole entry): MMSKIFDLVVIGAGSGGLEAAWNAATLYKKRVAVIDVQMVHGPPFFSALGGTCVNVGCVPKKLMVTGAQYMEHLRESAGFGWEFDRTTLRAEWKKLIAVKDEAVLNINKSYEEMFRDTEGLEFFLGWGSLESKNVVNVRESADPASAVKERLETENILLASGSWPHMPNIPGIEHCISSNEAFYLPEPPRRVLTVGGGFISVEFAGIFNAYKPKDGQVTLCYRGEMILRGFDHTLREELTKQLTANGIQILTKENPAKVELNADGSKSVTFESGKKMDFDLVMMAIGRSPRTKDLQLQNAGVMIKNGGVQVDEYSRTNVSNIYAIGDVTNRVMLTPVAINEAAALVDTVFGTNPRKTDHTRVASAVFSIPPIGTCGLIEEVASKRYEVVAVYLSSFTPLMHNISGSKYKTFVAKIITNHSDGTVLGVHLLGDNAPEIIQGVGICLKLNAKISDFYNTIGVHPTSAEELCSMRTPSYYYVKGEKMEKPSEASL

[11] = molecular target: Trypanothione reductase (Trypanosoma cruzi) (UniProt P28593); assay: Inhibition of Trypanosoma cruzi recombinant trypanothione reductase at 25 uM by spectrophotometry using 100 uM trypanothione disulfide
[12] = molecular target: T2, Trypanothione reductase; assay: Inhibition of Trypanosoma cruzi recombinant trypanothione reductase by spectrophotometry
[13] = molecular target: T2, Trypanothione reductase; assay: Inhibition of Trypanosoma cruzi recombinant trypanothione reductase by spectrophotometry-based non competitive inhibition type assay

Sequence of Trypanothione reductase (Trypanosoma cruzi) (P28593 whole entry, looked up): as the sequence (P28593 whole entry) above

Row | Structure (SMILES) | inhibition [1] | IC50 [2] | IC50 [3] | IC50 [4] | IC50 [5] | inhibition [6] | IC50 [7] | inhibition [8] | inhibition [9] | Ki [10] | inhibition [11] | Ki [12] | Ki [13]
1 | COc1cc2nc(N3CCN(C(=O)Cc4c[nH]c5ccccc45)CC3)nc(N)c2cc1OC | 13% | 19.6 µM | 42.2 µM | 10.2 µM | 1.35 µM | 23% | 2.21 µM |  |  |  |  |  | 
2 | COc1cc2nc(N3CCN(C4=CC(=O)c5ccccc5C4=O)CC3)nc(N)c2cc1OC |  | 2.76 µM | 1.78 µM | 3.68 µM | 0.53 µM |  | 0.12 µM | inactive | 53% | 22 µM | 57% | 7.5 µM | 
3 | COc1cc2nc(N3CCN(C(=O)[C@@H]4Cc5ccccc5CN4)CC3)nc(N)c2cc1OC | 0% | 14.2 µM | > 67 µM | 14.3 µM | 2.1 µM | 0% | 1.81 µM |  |  |  |  |  | 
4 | COc1cc2nc(N3CCN(C(=O)[C@H]4Cc5ccccc5CN4)CC3)nc(N)c2cc1OC | 0% | 37.2 µM | > 67 µM | 27.6 µM | 1.24 µM | 0% | 5.37 µM |  |  |  |  |  | 
5 | COc1cc(C(=N)NC2CCC(CC3CCC(/N=C(\N)c4ccc(OCc5ccccc5)c(OC)c4)CC3)CC2)ccc1OCc1ccccc1 (stereo not drawn) |  |  |  |  |  |  |  |  |  | 16 µM |  |  | 
6 | COC1=CC(=O)C=C(N2CCN(c3nc(N)c4cc(OC)c(OC)cc4n3)CC2)C1=O | 69% | 52.5 µM | 45.7 µM | 35.6 µM | 3.01 µM | 75% | 1.98 µM |  |  |  |  |  | 32 µM
7 | CN(C)CCOc1cc2nc(N3CCN(C4=CC(=O)c5ccccc5C4=O)CC3)nc(N)c2cc1OCCN(C)C |  |  |  |  |  |  |  |  |  |  |  |  | 11 µM
8 | CN(C)CCOc1cc2nc(N3CCN(C(=O)Cc4c[nH]c5ccccc45)CC3)nc(N)c2cc1OCCN(C)C | 44% | > 161 µM | > 54 µM | > 50 µM | 2.19 µM | 33% | 21.8 µM |  |  |  |  |  | 
